# Tests used:
# [1] = tested on: Caspase 3/7; experiment: Caspase 3/7 activity (pGlo) in donor one hESC-derived hepatocytes; format: cell-based, human; conditions: concentration of peak caspase 3/7 activity, 8 days exposure
# Procedure: (§1) H9 and Man12 human embryonic stem cells (hESCs) identity was confirmed using short tandem repeat typing. hESCs were cultured and differentiated as previously described (Cameron et al. [2015]). Maintenance of hESCs was performed on pre-coated laminin 521 (Biolaminin) in mTeSR1 ([…] Technologies) in a humidified 37 °C, 5% CO2 incubator. For differentiation, hESCs were plated onto a pre-coated blend of laminins 521 and 111 (at a 1:3 ratio). Differentiation was initiated at 40% confluence by replacing serum-free medium with endoderm differentiation medium: RPMI 1640 containing 1× B27 (Life Technologies), 100 ng/mL Activin A (PeproTech), and 50 ng/mL Wnt3a (R&D Systems). The medium was changed every 24 h for 72 h. On day 3, endoderm differentiation medium was replaced with hepatoblast differentiation medium, and this was renewed every second day for a further 5 days. The medium consisted of knockout (KO)-DMEM (Life Technologies), Serum replacement (Life Technologies), 0.5% Glutamax (Life Technologies), 1% non-essential amino acids (Life Technologies), 0.2% β-mercaptoethanol (Life Technologies), and 1% DMSO (Sigma). On day 8, differentiating cells were cultured in the hepatocyte maturation medium HepatoZYME (Life Technologies) containing 1% Glutamax (Life Technologies), supplemented with 10 ng/mL hepatocyte growth factor (PeproTech) and 20 ng/mL oncostatin M (PeproTech). On day 10 maturation medium was replaced with HepatoZYME supplemented with and without smoking derivatives (Sigma-Aldrich) for a further 8 days, with media replaced every 48 h.
# (§2) Cell health was assessed measuring ATP production and Caspase 3/7 activity at Day 18 employing pGlo technology (Promega) in accordance with the manufacturer’s instructions. Levels of expression of both markers were expressed as percentage of relative light units (RLUs) per milliliter of medium and normalised to the vehicle control. Levels of significance were measured by Student’s t test. The experiments are representative of five biological replicates.
# (§3) Hepatocyte specification and maturation was performed in male and female hESCs lines in the presence or absence to smoking components. Cotinine at a concentration range of 1 to 300 nM, chrysene at a concentration range of 10 nM to 50 μM, fluorene at a concentration range of 10 nM to 100 μM, naphthalene at a concentration range of 10nm to 1 mM and phenanthrene, at a concentration range of 10 nM to 500 μM were used. Following 8 days exposure, cell health was determined by ATP production and caspase activity. Following this cell function was determined measuring CYP P450 3A and 1A2 activity. In order to measure the effectiveness of each component of cigarette smoke to inhibiting activity we used the half maximal inhibitory concentration (IC50).
# [2] = tested on: Caspase 3/7; experiment: Caspase 3/7 activity (pGlo) in donor two hESC-derived hepatocytes; format: cell-based, human; conditions: concentration of peak caspase 3/7 activity, 8 days exposure
# Procedure: as §1, §2, §3
# [3] = tested on: CYP3A; experiment: CYP3A activity (pGlo) in donor two hESC-derived hepatocytes; conditions: human two
# Procedure: as §1
# CYP3A and CYP1A2 activity was measured in hepatocytes at Day 18 using pGlo technology (Promega) in accordance with the manufacturer’s instructions. CYP activity was expressed as either relative light units (RLUs) per milliliter of medium per milligram of protein (determined by the BCA assay, Pierce), or as a percentage of CYP activity normalised to the vehicle control. Levels of significance were measured by Student’s t test. The experiments are representative of five biological replicates.
# as §3
# [4] = target: T1, CYP1A2 (Homo sapiens, UniProt P05177); experiment: CYP1A2 activity (pGlo) in donor one hESC-derived hepatocytes; format: cell-based; conditions: female hepatocytes, 8 days exposure
# T1 sequence (P05177 2-516): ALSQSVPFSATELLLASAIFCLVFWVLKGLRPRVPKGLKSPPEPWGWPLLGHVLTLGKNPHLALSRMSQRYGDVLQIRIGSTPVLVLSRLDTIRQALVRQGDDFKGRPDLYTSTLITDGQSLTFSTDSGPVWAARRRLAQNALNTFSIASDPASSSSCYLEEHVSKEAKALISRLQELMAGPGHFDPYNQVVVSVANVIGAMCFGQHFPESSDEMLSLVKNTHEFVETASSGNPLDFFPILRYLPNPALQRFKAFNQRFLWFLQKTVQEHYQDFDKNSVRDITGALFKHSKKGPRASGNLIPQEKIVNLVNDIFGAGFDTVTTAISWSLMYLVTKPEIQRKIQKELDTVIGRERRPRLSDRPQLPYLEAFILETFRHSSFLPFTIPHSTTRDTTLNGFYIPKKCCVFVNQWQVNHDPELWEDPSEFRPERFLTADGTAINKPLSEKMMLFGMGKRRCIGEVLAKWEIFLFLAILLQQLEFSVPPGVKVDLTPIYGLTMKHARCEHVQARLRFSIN
# Excerpt: The experiments are representative of five biological replicates.
SMILES,Caspase 3/7 peak activity Female [1] [µM],Caspase 3/7 peak activity Male [2] [µM],IC50 at 8 days [3] [µM],IC50 CYP1A2 person one [4],IC50 CYP1A2 person one ([4]; listed as naphthalene)
CN1C(=O)CC[C@H]1c1cccnc1 [Cotinine],0.1,0.1,0.05,,
c1ccc2c(c1)ccc1ccccc12 [Phenanthrene],>500,10,58,,
c1ccc2c(c1)Cc1ccccc1-2 [Fluorene],>100,100,25,,
c1ccc2c(c1)ccc1c3ccccc3ccc21 [Chrysene],25,5,10,,
c1ccc2ccccc2c1 [Naphthalene],50,1000,68,Induced activity,induced CYP1A2 activity

# From article PMC5696490, “Modelling foetal exposure to maternal smoking using hepatoblasts from pluripotent stem cells” (Archives of Toxicology, 2017)
